Measurements: article PMC10650955, “α-Aminophosphonate inhibitors of metallo-β-lactamases NDM-1 and VIM-2” (RSC Medicinal Chemistry, 2023)
Counter-ions that a name gives are not always drawn.

Assays:
NDM-1 = molecular target: T1, NDM-1 (Klebsiella pneumoniae, UniProt C7C422); experiment: Dose rate inhibition studies for IC50 determination, NDM-1 enzymatic assay; format: biochemical; details: Enzyme IC50 NDM-1, 10 nM NDM-1, 100 μM ZnCl2, imipenem substrate, inhibitor 0-800 μM, 3 parallel measurements; N.I. = no enzyme inhibitory activity observed
T1 construct: made in house
T1 sequence (C7C422 29-270 limits assumed): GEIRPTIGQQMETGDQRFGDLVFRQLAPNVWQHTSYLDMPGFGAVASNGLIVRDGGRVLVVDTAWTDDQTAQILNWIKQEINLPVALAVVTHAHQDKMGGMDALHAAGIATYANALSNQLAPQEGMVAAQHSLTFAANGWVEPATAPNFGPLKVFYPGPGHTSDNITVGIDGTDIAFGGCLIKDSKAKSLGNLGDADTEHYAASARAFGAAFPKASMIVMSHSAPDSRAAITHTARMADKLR
Experimental: (§1) The […] synthesized compounds 5a–l were tested for their inhibitory activities against NDM-1, VIM-2 (Table 1), and GIM-1 in an in vitro enzymatic assay (ESI ^†).[41] The inhibitory activity was measured using enzyme concentrations of 0.1 nM VIM-2, 10 nM NDM-1 or 1 nM GIM-1, with an excess Zn(II) (100 μM, see Experimental methods), with inhibitor compounds with concentrations from 0 to 800 μM. Each data point was measured in triplicates. […] This is in line with previous reports.[42,43]
(§2) A 100 μl solution with buffer (50 mM HEPES (pH 7.2), 100 μM ZnCl2, 2.5% DMSO), purified enzyme (0.1 nM VIM-2, 10 nM NDM-1 or 1 nM GIM-1) and 800–0 μM inhibitor was incubated in a 96 well plate at 25 °C for 5 min. In addition, the enzyme buffer contained 400 μg ml^−1 bovine serum albumin (BSA) to prevent protein unfolding and loss of activity due to low concentrations.[67,68] 100 μM of the reporter substrate nitrocefin (VIM-2, GIM-1) or imipenem (NDM-1) was added to the enzyme–inhibitor solution and the increase in absorbance at 482 nm (nitrocefin) or 300 nm (imipenem) was recorded on a Spectramax M4 spectrophotometer (Molecular Devices). Each data point was performed in triplicates and the initial velocity for each inhibitor concentration was analyzed by a log [inhibitor] vs. response curve fitting to calculate IC50 in GraphPad Prism 9.2 software.

VIM-2 = molecular target: T2, VIM-2 (Escherichia coli, UniProt Q5U7L7); experiment: Dose rate inhibition studies for IC50 determination, VIM-2 enzymatic assay; format: biochemical; details: Enzyme IC50 VIM-2, 0.1 nM VIM-2, 100 μM ZnCl2, nitrocefin substrate, inhibitor 0-800 μM, 3 parallel measurements; N.I. = no enzyme inhibitory activity observed
T2 construct: made in house
Experimental: as §1, §2

15N-labelled NDM-1 = molecular target: T3, 15N-labelled NDM-1 (Klebsiella pneumoniae, UniProt C7C422); experiment: 1H,15N HSQC NMR chemical shift perturbation titration, NDM-1; format: binding
T3 construct: made in house
T3 sequence (C7C422 29-270 limits assumed): as above
Experimental: (§3) Solution NMR spectroscopy is a powerful tool to assess protein–ligand interactions under close to physiological conditions.[47] We, therefore, performed NMR chemical shift perturbation (CSP, for details, see section S8, ESI ^†) experiments to identify the amino acid residues of NDM-1 and VIM-2 that are involved in inhibitor binding, making use of the previously published protein assignments.[48,49] Titrations were conducted using ^15N-labelled proteins with 0, 0.5, 1, 2, 4, 8, and 16 equiv. of 5 inhibitors for NDM-1 and of 7 inhibitors for VIM-2.
(§4) For the titrations, ^15N-labelled NDM-1 and ^15N-labelled VIM-2 (250 μM), and titrated ligands (0.5 equiv. in 1 μL) were prepared in the same buffer as the protein (20 mM KPO4, 0.1 mM ZnCl2, pH 7.0 with 10% D2O and 2.5% DMSO-d6). ^1H,^15N HSQC spectra were acquired with 128 × 1024 complex points (F1 × F2) and spectral width of 9090 × 2740 Hz on ^15N-labeled NDM-1/VIM-2 and with every titration step up to 1 : 16 ratio between protein : ligand (0, 0.5, 1, 2, 4, 8, and 16 equiv. of ligand). All experiments were recorded on a Bruker 600 MHz spectrometer at 310 K equipped with a 5 mm TCI cryogenic probe. The NMR data were processed on the MestReNova software with the Mnova Binding plugin. The weighted average chemical shift perturbations (CSP) for the backbone amides were calculated from the observed chemical shift differences in the proton and nitrogen dimensions using the equation (chemical shift scaling factors: FH = 1, FN = 0.156) CSP = Δδ1H,15N = [drawing 13] .
(§5) 7. Chemical shift perturbation histograms
(§6) Chemical shift perturbation was calculated according equation (1) 2
(§7) CSP = Δδ(1H,15N) = √(Δδ1H2 + (1⁄R × Δδ15N2) Rscale = 6.5 (1)
(§8) Where Δδ1H is the chemical shift change for proton dimension, Δδ15N is the chemical shift change for nitrogen dimension, Rscale is a
(§9) The chemical shift perturbations (CSP) were classified as significant (SSP) when the observed Δδ(1H,15N) was greater than the population
(§10) mean plus the standard deviation (µ+1σ) – solid line; (µ+2σ) – dashed line, and (µ+3σ) – dashed line.
(§11) Further on, Kd was calculated according: 3
(§12) ([P]+[L]+Kd)− √([P]+[L]+Kd)2−4[P][L]
(§13) ΔδmaxΔδobs = Δδmax 2[P] (2)
(§14) Where Kd is the dissociation constant, [P] and [L] are protein and ligand concentrations, respectively. Δδmax were estimated in
(§15) MestReNova by extrapolation of the obser ved chemical shift differences Δδobs.

15N-labelled VIM-2 = molecular target: T4, 15N-labelled VIM-2 (Escherichia coli, UniProt Q5U7L7); experiment: 1H,15N HSQC NMR chemical shift perturbation titration, VIM-2; format: binding; details: VIM-2 Kd, 0-16 equiv. ligand, pH 7.0, 310 K
T4 construct: made in house
Experimental: as §3, §4, §5, §6, §7, §8, §9, §10, §11, §12, §13, §14, §15

## O=C(NC(C1CCCCN1)P(=O)(O)O)c1ccsc1 (centres unmarked) [Compound 5c-1, (Piperidin-2-yl(thiophene-3-carboxamido)methyl)phos-phonic acid hydrochloride]
NDM-1
  IC50: 0.219 ± 0.014 mM
VIM-2
  IC50: 0.033 ± 0.003 mM
15N-labelled NDM-1; Estimated binding constant (Kd), residue 070F, Table S5, per-residue fit, NDM-1 070F
  Kd: 15.2 mM
15N-labelled NDM-1; Estimated binding constant (Kd), residue 091T, Table S5, per-residue fit, NDM-1 091T
  Kd: 4.17 mM
15N-labelled NDM-1; Estimated binding constant (Kd), residue 108E, Table S5, per-residue fit, NDM-1 108E
  Kd: 4.5 mM
15N-labelled NDM-1; Estimated binding constant (Kd), residue 119T, Table S5, per-residue fit, NDM-1 119T
  Kd: 10.7 mM
15N-labelled NDM-1; Estimated binding constant (Kd), residue 123Q, Table S5, per-residue fit, NDM-1 123Q
  Kd: 1.69 mM
15N-labelled NDM-1; Estimated binding constant (Kd), residue 124D, Table S5, per-residue fit, NDM-1 124D
  Kd: 5.76 mM
15N-labelled NDM-1; Estimated binding constant (Kd), residue 127G, Table S5, per-residue fit, NDM-1 127G
  Kd: 10.8 mM
15N-labelled NDM-1; Estimated binding constant (Kd), residue 143A, Table S5, per-residue fit, NDM-1 143A
  Kd: 8.49 mM
15N-labelled NDM-1; Estimated binding constant (Kd), residue 149A, Table S5, per-residue fit, NDM-1 149A
  Kd: 1.76 mM
15N-labelled NDM-1; Estimated binding constant (Kd), residue 152E, Table S5, per-residue fit, NDM-1 152E
  Kd: 3.85 mM
15N-labelled NDM-1; Estimated binding constant (Kd), residue 159H, Table S5, per-residue fit, NDM-1 159H
  Kd: 11.7 mM
15N-labelled NDM-1; Estimated binding constant (Kd), residue 160S, Table S5, per-residue fit, NDM-1 160S
  Kd: 5.4 mM
15N-labelled NDM-1; Estimated binding constant (Kd), residue 188G, Table S5, per-residue fit, NDM-1 188G
  Kd: 15.8 mM
15N-labelled NDM-1; Estimated binding constant (Kd), residue 191S, Table S5, per-residue fit, NDM-1 191S
  Kd: 0.48 mM
15N-labelled NDM-1; Estimated binding constant (Kd), residue 194I, Table S5, per-residue fit, NDM-1 194I
  Kd: 6.26 mM
15N-labelled NDM-1; Estimated binding constant (Kd), residue 197G, Table S5, per-residue fit, NDM-1 197G
  Kd: 1.51 mM
15N-labelled NDM-1; Estimated binding constant (Kd), residue 205F, Table S5, per-residue fit, NDM-1 205F
  Kd: 3.19 mM
15N-labelled NDM-1; Estimated binding constant (Kd), residue 206G, Table S5, per-residue fit, NDM-1 206G
  Kd: 3.95 mM
15N-labelled NDM-1; Estimated binding constant (Kd), residue 211K, Table S5, per-residue fit, NDM-1 211K
  Kd: 10 mM
15N-labelled NDM-1; Estimated binding constant (Kd), residue 213S, Table S5, per-residue fit, NDM-1 213S
  Kd: 9.53 mM
15N-labelled NDM-1; Estimated binding constant (Kd), residue 214K, Table S5, per-residue fit, NDM-1 214K
  Kd: 6.4 mM
15N-labelled NDM-1; Estimated binding constant (Kd), residue 217S, Table S5, per-residue fit, NDM-1 217S
  Kd: 11.8 mM
15N-labelled NDM-1; Estimated binding constant (Kd), residue 228H, Table S5, per-residue fit, NDM-1 228H
  Kd: 17.9 mM
15N-labelled NDM-1; Estimated binding constant (Kd), residue 229Y, Table S5, per-residue fit, NDM-1 229Y
  Kd: 6.74 mM
15N-labelled NDM-1; Estimated binding constant (Kd), residue 230A, Table S5, per-residue fit, NDM-1 230A
  Kd: 11.5 mM
15N-labelled NDM-1; Estimated binding constant (Kd), residue 232S, Table S5, per-residue fit, NDM-1 232S
  Kd: 10.2 mM
15N-labelled NDM-1; Estimated binding constant (Kd), residue 248M, Table S5, per-residue fit, NDM-1 248M
  Kd: 36.6 mM
15N-labelled NDM-1; Estimated binding constant (Kd), residue 249S, Table S5, per-residue fit, NDM-1 249S
  Kd: 4.15 mM
15N-labelled NDM-1; Estimated binding constant (Kd), residue 251S, Table S5, per-residue fit, NDM-1 251S
  Kd: 15.4 mM
15N-labelled NDM-1; Estimated binding constant (Kd), residue 254D, Table S5, per-residue fit, NDM-1 254D
  Kd: 5.56 mM
15N-labelled NDM-1; Estimated binding constant (Kd), residue 255S, Table S5, per-residue fit, NDM-1 255S
  Kd: 10.6 mM
15N-labelled NDM-1; NDM-1 Kd, NMR chemical shift perturbation, 0-16 equiv. ligand, pH 7.0, 310 K
  Kd: 3.1 ± 0.3 mM
15N-labelled VIM-2
  Kd: 0.4 ± 0.03 mM
